Laboratory results from ChEMBL document CHEMBL3885861, “Open TG-GATES”.

Species on record: Rattus norvegicus
Test: Open TG-GATES - Regimen: Single
Assay type: toxicity, organism-based, Sprague-Dawley
Design: regimen Single, gender Male, age 6 weeks
Details: in vivo, po, 100 mg/kg, route gavage, dose level Low; for APTT / Bas / Eos / Fbg / Hb / Ht / Lym / MCH / MCHC / MCV / Mono / Neu / PT / Plat / RBC / Ret / WBC: tissue Blood; for KIDNEY_L / KIDNEY_R / KIDNEY_TOTAL: tissue Kidney; for LIVER: tissue Liver; for A/G / ALP / ALT / AST / BUN / CRE / Ca / Cl / DBIL / GLC / IP / K / LDH / Na / PL / RALB / TBIL / TC / TG / TP / gamma-GTP: tissue Plasma

In the case of `CN(C)[C@@H]1C(O)=C(C(N)=O)C(=O)[C@@]2(O)C(O)=C3C(=O)c4c(O)cccc4[C@@](C)(O)[C@H]3C[C@@H]12` [TETRACYCLINE], the TERMINAL_BW (3 h) is reported as 185.7 g, the APTT (3 h) is reported as 16.7 s and the Bas (3 h) is reported as 0%. It also gave an Eos (3 h) of 0.8%, a Fbg (3 h) of 197.8 mg/dL and a Hb (3 h) of 12.8 g/dL. For the same compound, the Ht (3 h) was 38.5%, the Lym (3 h) was 84.2% and the MCH (3 h) was 21.8 pg. For the same compound, the MCHC (3 h) was 33.2%, the MCV (3 h) was 65.7 fL and the Mono (3 h) was 6.4%. It also gave a Neu (3 h) of 9.2%, a PT (3 h) of 12.1 s and a Plat (3 h) of 98.5 x10_4/uL. It also gave an RBC (3 h) of 586.6 x10_4/ul, a Ret (3 h) of 9.8% and a WBC (3 h) of 101.6 x10_2/uL. The KIDNEY_L (3 h) was 0.9 g, the KIDNEY_R (3 h) was 0.9 g and the KIDNEY_TOTAL (3 h) was 1.9 g. For the same compound, the LIVER (3 h) was 8.9 g, the A/G (3 h) was 2.3 and the ALP (3 h) was 713.6 IU/L. The ALT (3 h) was 40 IU/L, the AST (3 h) was 69.4 IU/L and the BUN (3 h) was 12 mg/dL. It also gave a CRE (3 h) of 0.5 mg/dL, a Ca (3 h) of 11.1 mg/dL and a Cl (3 h) of 104 meq/L. The DBIL (3 h) was 0.036 mg/dL, the GLC (3 h) was 179.8 mg/dL and the IP (3 h) was 10.7 mg/dL. The K (3 h) was 4.9 meq/L, the LDH (3 h) was 84.2 IU/L and the Na (3 h) was 137.4 meq/L. For the same compound, the PL (3 h) was 127.8 mg/dL, the RALB (3 h) was 3.8 g/dL and the TBIL (3 h) was 0.4 mg/dL. The TC (3 h) was 73.8 mg/dL, the TG (3 h) was 38 mg/dL and the TP (3 h) was 5.4 g/dL. The gamma-GTP (3 h) was 1.2 IU/L, the TERMINAL_BW (6 h) was 184.5 g and the APTT (6 h) was 16.5 s. It also gave a Bas (6 h) of 0%, an Eos (6 h) of 0.6% and a Fbg (6 h) of 199.6 mg/dL. For the same compound, the Hb (6 h) was 13.2 g/dL, the Ht (6 h) was 39.9% and the Lym (6 h) was 80.2%. For the same compound, the MCH (6 h) was 21.9 pg, the MCHC (6 h) was 33.2% and the MCV (6 h) was 66 fL. It also gave a Mono (6 h) of 5.2%, a Neu (6 h) of 14.4% and a PT (6 h) of 12.1 s. The Plat (6 h) was 107 x10_4/uL, the RBC (6 h) was 607.2 x10_4/ul and the Ret (6 h) was 10.1%. The WBC (6 h) was 95.2 x10_2/uL, the KIDNEY_L (6 h) was 0.9 g and the KIDNEY_R (6 h) was 0.9 g. It also gave a KIDNEY_TOTAL (6 h) of 1.7 g, an LIVER (6 h) of 8.3 g and an A/G (6 h) of 2.2. For the same compound, the ALP (6 h) was 880.4 IU/L, the ALT (6 h) was 36.2 IU/L and the AST (6 h) was 69.6 IU/L. For the same compound, the BUN (6 h) was 12.2 mg/dL, the CRE (6 h) was 0.4 mg/dL and the Ca (6 h) was 10.8 mg/dL. For the same compound, the Cl (6 h) was 106 meq/L, the DBIL (6 h) was 0.02 mg/dL and the GLC (6 h) was 175.6 mg/dL. The IP (6 h) was 10.3 mg/dL, the K (6 h) was 5.1 meq/L and the LDH (6 h) was 85.2 IU/L. For the same compound, the Na (6 h) was 137 meq/L, the PL (6 h) was 139 mg/dL and the RALB (6 h) was 3.6 g/dL. For the same compound, the TBIL (6 h) was 0.3 mg/dL, the TC (6 h) was 82.2 mg/dL and the TG (6 h) was 32.4 mg/dL. For the same compound, the TP (6 h) was 5.3 g/dL, the gamma-GTP (6 h) was 1.6 IU/L and the TERMINAL_BW (9 h) was 181.6 g. The APTT (9 h) was 16.5 s, the Bas (9 h) was 0% and the Eos (9 h) was 0.4%. It also gave a Fbg (9 h) of 210.6 mg/dL, a Hb (9 h) of 12.9 g/dL and a Ht (9 h) of 39.4%. It also gave a Lym (9 h) of 81.8%, an MCH (9 h) of 21.8 pg and an MCHC (9 h) of 32.8%. The MCV (9 h) was 66.4 fL, the Mono (9 h) was 5.8% and the Neu (9 h) was 11.6%. It also gave a PT (9 h) of 12.2 s, a Plat (9 h) of 102.3 x10_4/uL and an RBC (9 h) of 592.8 x10_4/ul. The Ret (9 h) was 9.5%, the WBC (9 h) was 93.6 x10_2/uL and the KIDNEY_L (9 h) was 0.9 g. For the same compound, the KIDNEY_R (9 h) was 0.9 g, the KIDNEY_TOTAL (9 h) was 1.7 g and the LIVER (9 h) was 7.5 g. The A/G (9 h) was 2.2, the ALP (9 h) was 861 IU/L and the ALT (9 h) was 32.8 IU/L. For the same compound, the AST (9 h) was 64 IU/L, the BUN (9 h) was 13.2 mg/dL and the CRE (9 h) was 0.4 mg/dL. For the same compound, the Ca (9 h) was 10.5 mg/dL, the Cl (9 h) was 105.8 meq/L and the DBIL (9 h) was 0.022 mg/dL. The GLC (9 h) was 176.8 mg/dL, the IP (9 h) was 10.5 mg/dL and the K (9 h) was 5.1 meq/L. The LDH (9 h) was 93.8 IU/L, the Na (9 h) was 138.4 meq/L and the PL (9 h) was 126.6 mg/dL. The RALB (9 h) was 3.8 g/dL, the TBIL (9 h) was 0.3 mg/dL and the TC (9 h) was 73.4 mg/dL. It also gave a TG (9 h) of 26 mg/dL, a TP (9 h) of 5.5 g/dL and a gamma-GTP (9 h) of 1.8 IU/L. For the same compound, the TERMINAL_BW (24 h) was 196.8 g, the APTT (24 h) was 16.4 s and the Bas (24 h) was 0%. The Eos (24 h) was 0.5%, the Fbg (24 h) was 218 mg/dL and the Hb (24 h) was 13.5 g/dL. The Ht (24 h) was 41.6%, the Lym (24 h) was 84% and the MCH (24 h) was 22 pg. For the same compound, the MCHC (24 h) was 32.4%, the MCV (24 h) was 67.9 fL and the Mono (24 h) was 8.5%. The Neu (24 h) was 7.2%, the PT (24 h) was 11.9 s and the Plat (24 h) was 105.1 x10_4/uL. It also gave an RBC (24 h) of 614 x10_4/ul, a Ret (24 h) of 10.3% and a WBC (24 h) of 88.6 x10_2/uL. For the same compound, the KIDNEY_L (24 h) was 0.9 g, the KIDNEY_R (24 h) was 0.9 g and the KIDNEY_TOTAL (24 h) was 1.8 g. For the same compound, the LIVER (24 h) was 9.1 g, the A/G (24 h) was 2.1 and the ALP (24 h) was 914 IU/L. The ALT (24 h) was 34 IU/L, the AST (24 h) was 64.8 IU/L and the BUN (24 h) was 17.8 mg/dL. For the same compound, the CRE (24 h) was 0.5 mg/dL, the Ca (24 h) was 11.4 mg/dL and the Cl (24 h) was 104.8 meq/L. For the same compound, the DBIL (24 h) was 0 mg/dL, the GLC (24 h) was 188.5 mg/dL and the IP (24 h) was 10 mg/dL. The K (24 h) was 5.2 meq/L, the LDH (24 h) was 97.8 IU/L and the Na (24 h) was 140.8 meq/L. It also gave a PL (24 h) of 154.2 mg/dL, an RALB (24 h) of 3.9 g/dL and a TBIL (24 h) of 0.3 mg/dL. The TC (24 h) was 86.5 mg/dL, the TG (24 h) was 66.2 mg/dL and the TP (24 h) was 5.8 g/dL. The gamma-GTP (24 h) was 1 IU/L.
